Reference: US5952376A, “Trienyl compounds” (The Trustees of the University of Pennsylvania, priority 1997, dated 1999)

Legend:
[1] = test system: BXPC-3; assay: Antitumor Activity (in vitro), Pancreas-a BXPC-3; type: cell-based; settings: Homo sapiens
Description: (§1) Trienes (+)-3a and (+)-3b were tested for antitumor activity generally in accordance with the procedure described by Bai, et al., Biochemistry 1995, 34, 9714.

[2] = test system: SK-N-SH; assay: Antitumor Activity (in vitro), Neuroblast SK-N-SH; type: cell-based; settings: Homo sapiens
Description: as §1

[3] = test system: SW 1736; assay: Antitumor Activity (in vitro), Thyroid ca SW 1736; type: cell-based; settings: Homo sapiens
Description: as §1

[4] = test system: NCI-H460; assay: Antitumor Activity (in vitro), Lung-NSC NCI-H460; type: cell-based; settings: Homo sapiens
Description: as §1

[5] = test system: FADU; assay: Antitumor Activity (in vitro), Pharynx-sq FADU; type: cell-based; settings: Homo sapiens
Description: as §1

[6] = test system: DU-145; assay: Antitumor Activity (in vitro), Prostate DU-145; type: cell-based; settings: Homo sapiens
Description: as §1

[7] = test system: human cancer cell lines; assay: antitumor activity against a series of human cancer cell lines; type: cell-based
Description: as §1

[8] = test system: chemoresistant tumor types, including human melanoma and lung, colon, and brain cancers; settings: cited from earlier work
[9] = test system: tubulin; settings: cited from earlier work
[10] = test system: microtubule assembly; settings: cited from earlier work
[11] = test system: mitosis; settings: cited from earlier work

Row | GI50 [1] [nM] | GI50 [2] [nM] | GI50 [3] [nM] | GI50 [4] [nM] | GI50 [5] [nM] | GI50 [6] [nM] | Compound | antitumor activity [7] | activity against chemoresistant tumor types [8] | binding to tubulin [9] | blocking microtubule assembly [10] | inhibition of mitosis [11]
1 | 440 | 540 | 1200 | 460 | 470 | 560 | C=C/C=C/C(O)CC(=C)C[C@H]1OC(OC)[C@H](OCc2ccccc2)[C@@H](OCc2ccccc2)[C@@H]1OCc1ccccc1 (single isomer, unassigned) [Triene 3a] | active | – | – | – | –
2 | – | – | – | – | – | – | Spongistatin 1 | – | active | binding to tubulin | blocking microtubule assembly | inhibits mitosis
3 | 5300 | 3600 | 9600 | 11000 | 8300 | > 16000 | C=C(Cl)/C=C/C(O)CC(=C)C[C@H]1OC(OC)[C@H](OCc2ccccc2)[C@@H](OCc2ccccc2)[C@@H]1OCc1ccccc1 (single isomer, unassigned) [Triene 3b] | active | – | – | – | –
